In patent publication US6835754B2, “Use of aryl nitrone compounds in methods for treating neuropathic pain” (Renovis, Inc., priority 2001, dated 2004):

System: male Swiss Webster mice, phenylquinone-induced writhing
Experiment: Phenylquinone (PQ) writhing assay, % inhibition (Swiss Webster mice)
Type: in vivo
Settings: Mus musculus, standard, read-out: % Inhibition of Writhing Response

Compound | inhibition at 1 mg/kg (1 mg/kg) | inhibition at 3 mg/kg (3 mg/kg)
C[C@@H]1C[C@H]2[C@@H]3CCC4=CC(=O)C=C[C@]4(C)[C@@]3(F)[C@@H](O)C[C@]2(C)[C@@]1(O)C(=O)CO [Dexamethasone] | 62% | 
COc1ccc2c(c1)c(CC(=O)O)c(C)n2C(=O)c1ccc(Cl)cc1 [Indomethacin] |  | 93%
